This note sets out measurements from patent publication US9120812B2, “Pyrimidooxazocine derivatives as mTOR-inhibitors” (SANOFI, priority 2012, dated 2015).

For orientation: inhibition means the percentage by which the read-out fell short of the control.

One test has as its target PI3Kα (p110α/p85α) (Homo sapiens (Human), UniProt P42336). Briefly: PI3Kα enzymatic test by measuring the consumption of ATP. In kind it is biochemical. Put shortly: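 p110α/p85α (1.7 μg/ml) with 50 μM PIP2 and 2 μM ATP in pH 7.5 Tris buffer with EGTA, MgCl2, Chaps, DTT; reaction 90 min. Remaining ATP measured by luciferin/luciferase luminescence; IC50 from threefold serial dilutions spanning at least 10 000-fold.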

Test [1] has as its target mTOR (human recombinant aa mTOR 1360-2549) (Homo sapiens (Human), UniProt P42345). The experiment in a line: mTOR enzymatic test by TR-FRET (phosphorylation of GFP-4EBP1). The format is biochemical. Put shortly: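 TR-FRET detection of GFP-4EBP1 phosphorylation by a terbium-labelled anti-phospho-Thr46 antibody. Kinase reaction ran 30 min at room temperature, was quenched with EDTA (10 mM final) plus Tb-antibody (2 nM final) and left 60 min. Emission at 520 and 490 nm after 340 nm excitation, reported as the 520/490 ratio.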
A general note: TR-FRET usually uses a lanthanide donor and a delayed reading to cut background.

For another test, the system named is U87MG tumour cells. Briefly: Test of in vitro proliferation of U87MG tumour cells. The format is cell-based. Particulars: Homo sapiens, U-87 MG, 72 h, U87MG cells, 72 hours; read-out: U87 Cell Proliferation IC50. Here is the method: Model 4: Test of in vitro Proliferation of U87MG Tumour Cells.
The cell growth is determined with the reagent CellTiter 96 AQueous One Solution Cell Proliferation Assay from Promega (Cat. No. G3581).

For a further test, the system named is Akt-pS473 in U87MG cells. Particulars: Homo sapiens, U-87 MG; for IC50: read-out: U87 Akt-pS473 % Inhibition or IC50, nM (IC50), U87MG cells.

mTOR (human recombinant aa mTOR 1360-2549), sequence (P42345 1360-2549): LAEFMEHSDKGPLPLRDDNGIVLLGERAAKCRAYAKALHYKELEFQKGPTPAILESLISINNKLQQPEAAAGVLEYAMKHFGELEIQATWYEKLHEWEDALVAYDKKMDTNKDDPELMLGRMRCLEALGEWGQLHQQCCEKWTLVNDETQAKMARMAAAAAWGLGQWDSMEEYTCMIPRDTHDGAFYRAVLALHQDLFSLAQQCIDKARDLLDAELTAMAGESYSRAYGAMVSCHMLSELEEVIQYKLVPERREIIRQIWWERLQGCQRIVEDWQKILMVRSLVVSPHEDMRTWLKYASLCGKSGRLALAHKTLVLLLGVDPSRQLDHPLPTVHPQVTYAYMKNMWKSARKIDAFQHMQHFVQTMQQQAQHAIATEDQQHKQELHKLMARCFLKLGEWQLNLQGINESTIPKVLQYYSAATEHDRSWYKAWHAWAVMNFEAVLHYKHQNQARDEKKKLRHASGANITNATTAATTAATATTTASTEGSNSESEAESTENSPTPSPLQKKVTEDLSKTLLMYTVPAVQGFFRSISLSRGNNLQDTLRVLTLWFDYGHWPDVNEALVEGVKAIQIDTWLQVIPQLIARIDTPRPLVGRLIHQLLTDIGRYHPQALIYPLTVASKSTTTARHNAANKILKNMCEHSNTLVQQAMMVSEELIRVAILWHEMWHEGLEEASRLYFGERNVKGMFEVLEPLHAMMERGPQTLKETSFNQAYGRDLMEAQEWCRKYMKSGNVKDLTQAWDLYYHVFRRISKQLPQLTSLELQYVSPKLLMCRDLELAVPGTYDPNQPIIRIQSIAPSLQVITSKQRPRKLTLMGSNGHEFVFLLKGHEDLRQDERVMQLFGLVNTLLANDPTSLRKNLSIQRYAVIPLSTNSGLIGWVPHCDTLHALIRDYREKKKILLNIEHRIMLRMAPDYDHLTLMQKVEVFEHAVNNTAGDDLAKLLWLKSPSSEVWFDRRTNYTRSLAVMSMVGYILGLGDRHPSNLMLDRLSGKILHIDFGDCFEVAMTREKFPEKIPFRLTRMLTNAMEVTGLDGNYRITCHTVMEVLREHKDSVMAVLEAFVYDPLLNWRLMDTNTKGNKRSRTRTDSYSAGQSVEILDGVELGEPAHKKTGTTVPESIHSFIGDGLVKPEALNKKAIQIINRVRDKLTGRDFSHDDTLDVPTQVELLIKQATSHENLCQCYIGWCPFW
PI3Kα (p110α/p85α), sequence (P42336 whole entry): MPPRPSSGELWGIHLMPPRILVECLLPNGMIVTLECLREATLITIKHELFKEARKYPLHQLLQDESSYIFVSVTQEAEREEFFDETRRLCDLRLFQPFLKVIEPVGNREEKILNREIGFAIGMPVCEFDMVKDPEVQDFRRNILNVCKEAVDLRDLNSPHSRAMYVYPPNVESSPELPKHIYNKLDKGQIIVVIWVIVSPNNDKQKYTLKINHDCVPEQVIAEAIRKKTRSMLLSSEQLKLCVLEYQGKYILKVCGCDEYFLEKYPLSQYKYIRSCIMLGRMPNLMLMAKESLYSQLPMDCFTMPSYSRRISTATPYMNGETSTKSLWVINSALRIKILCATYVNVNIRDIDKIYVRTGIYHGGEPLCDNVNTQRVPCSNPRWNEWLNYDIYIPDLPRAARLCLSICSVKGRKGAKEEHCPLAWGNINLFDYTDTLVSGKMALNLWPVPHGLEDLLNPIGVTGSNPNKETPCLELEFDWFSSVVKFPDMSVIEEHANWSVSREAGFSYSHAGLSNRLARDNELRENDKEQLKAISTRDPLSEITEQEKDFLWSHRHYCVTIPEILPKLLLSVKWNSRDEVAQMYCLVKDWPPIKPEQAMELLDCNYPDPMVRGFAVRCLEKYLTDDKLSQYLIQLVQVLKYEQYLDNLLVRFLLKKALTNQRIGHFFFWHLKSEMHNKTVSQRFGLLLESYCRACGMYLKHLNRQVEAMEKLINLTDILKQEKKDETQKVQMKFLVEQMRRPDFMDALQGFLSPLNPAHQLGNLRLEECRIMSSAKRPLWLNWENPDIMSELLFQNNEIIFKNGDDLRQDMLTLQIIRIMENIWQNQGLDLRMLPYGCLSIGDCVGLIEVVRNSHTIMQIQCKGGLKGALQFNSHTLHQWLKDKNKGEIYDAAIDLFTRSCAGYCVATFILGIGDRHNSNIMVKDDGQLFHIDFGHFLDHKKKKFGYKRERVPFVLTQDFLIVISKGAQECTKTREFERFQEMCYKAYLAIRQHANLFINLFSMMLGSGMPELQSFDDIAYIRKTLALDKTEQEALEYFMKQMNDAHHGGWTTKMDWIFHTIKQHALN
PI3Kα (p110α/p85α), sequence (P27986 whole entry partner): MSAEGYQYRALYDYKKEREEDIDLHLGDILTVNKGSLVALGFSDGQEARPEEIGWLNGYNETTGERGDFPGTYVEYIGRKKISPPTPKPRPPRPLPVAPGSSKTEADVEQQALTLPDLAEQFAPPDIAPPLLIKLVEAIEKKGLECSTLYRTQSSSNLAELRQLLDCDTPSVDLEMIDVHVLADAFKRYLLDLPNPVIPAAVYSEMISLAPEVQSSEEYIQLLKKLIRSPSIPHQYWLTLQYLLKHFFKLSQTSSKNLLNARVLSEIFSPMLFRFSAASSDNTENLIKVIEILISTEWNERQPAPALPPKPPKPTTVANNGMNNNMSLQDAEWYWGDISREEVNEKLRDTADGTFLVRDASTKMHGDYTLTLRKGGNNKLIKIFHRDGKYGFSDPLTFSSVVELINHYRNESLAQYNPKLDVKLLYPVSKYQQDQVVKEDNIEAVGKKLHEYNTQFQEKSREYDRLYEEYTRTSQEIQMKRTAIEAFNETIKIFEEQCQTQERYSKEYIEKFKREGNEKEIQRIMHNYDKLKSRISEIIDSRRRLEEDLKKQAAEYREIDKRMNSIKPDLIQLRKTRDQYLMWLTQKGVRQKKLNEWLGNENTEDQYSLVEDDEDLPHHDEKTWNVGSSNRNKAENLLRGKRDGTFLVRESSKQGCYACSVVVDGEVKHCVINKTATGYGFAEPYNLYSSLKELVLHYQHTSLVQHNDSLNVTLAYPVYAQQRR

`COCCN1CC(C)(C)Oc2nc(N3CC4CCC(C3)O4)nc(-c3ccc(NC(=O)Nc4ccon4)c(F)c3)c2C1=O` [Example 179, 1-{2-Fluoro-4-[6-(2-methoxyethyl)-8,8-dimethyl-2-(8-oxa-3-azabicyclo[3.2.1]oct-3-yl)-5-oxo-5,6,7,8-tetrahydro-9-oxa-1,3,6-triazabenzocyclohepten-4-yl]phenyl}-3-isoxazol-3-ylurea]: the “PI3Ka IC50” value on PI3Kα (p110α/p85α) is over 10000 nM. The IC50 amounted to 58 nM in test [1], 1330 nM in the test on U87MG tumour cells and 331 nM with Akt-pS473 in U87MG cells.

For `CNC(=O)Nc1ccc(-c2nc(N3C4CCC3COC4)nc3c2C(=O)N(C)CC(C)(C)O3)cc1F` [Example 46, 1-{2-Fluoro-4-[6,8,8-trimethyl-2-(3-oxa-8-azabicyclo[3.2.1]oct-8-yl)-5-oxo-5,6,7,8-tetrahydro-9-oxa-1,3,6-triazabenzocyclohepten-4-yl]phenyl}-3-methylurea], on PI3Kα (p110α/p85α), the “PI3Ka IC50” value is 8880 nM. Further, the figures for the IC50 (in test [1]; in the test with U87MG tumour cells; with Akt-pS473 in U87MG cells) were 26 nM, 90 nM and 24 nM, respectively.

Take `CCN1CC(C)(C)Oc2nc(N3CCOC[C@@H]3C)nc(-c3ccc(NC(=O)Nc4cccc(C)n4)cc3)c2C1=O` [Example 36, 1-{4-[6-Ethyl-8,8-dimethyl-2-((S)-3-methylmorpholin-4-yl)-5-oxo-5,6,7,8-tetrahydro-9-oxa-1,3,6-triazabenzocyclohepten-4-yl]phenyl}-3-(6-methylpyridin-2-yl)urea]: the “PI3Ka IC50” value at PI3Kα (p110α/p85α) was determined as 4400 nM. The IC50 is 55 nM in test [1], 686 nM in the test on U87MG tumour cells and 129 nM with Akt-pS473 in U87MG cells.

In the case of `CCN1CC(C)(C)Oc2nc(N3CC4CCC(C3)O4)nc(-c3ccc(NC(=O)Nc4cnc(N5CCOCC5)cn4)c(F)c3)c2C1=O` [Example 233, 1-{4-[6-Ethyl-8,8-dimethyl-2-(8-oxa-3-azabicyclo[3.2.1]oct-3-yl)-5-oxo-5,6,7,8-tetrahydro-9-oxa-1,3,6-triazabenzocyclohepten-4-yl]-2-fluorophenyl}-3-(5-morpholin-4-ylpyrazin-2-yl)urea], at PI3Kα (p110α/p85α), the “PI3Ka IC50” value is over 10000 nM. For the same compound, the IC50 in test [1] came to 68 nM; in the test with U87MG tumour cells, 908 nM; in the test with Akt-pS473 in U87MG cells, 87 nM.

Consider `Cc1ccc(NC(=O)Nc2ccc(-c3nc(N4CC5CCC(C4)O5)nc4c3C(=O)N(C)CC(C)(C)O4)cc2)nc1` [Example 42, 1-(5-Methylpyridin-2-yl)-3-{4-[6,8,8-trimethyl-2-(8-oxa-3-azabicyclo[3.2.1]oct-3-yl)-5-oxo-5,6,7,8-tetrahydro-9-oxa-1,3,6-triazabenzocyclohepten-4-yl]phenyl}urea], for which the “PI3Ka IC50” value at PI3Kα (p110α/p85α) was over 10000 nM. Moreover, the IC50 in test [1] is 43 nM; in the test with U87MG tumour cells, 350 nM; in the test with Akt-pS473 in U87MG cells, 52 nM.

For the compound `CCN1CC(C)(C)Oc2nc(N3CC4CCC(C3)O4)nc(-c3ccc(NC(=O)Nc4ccnc5[nH]ccc45)c(F)c3)c2C1=O` [Example 86, 1-{4-[6-Ethyl-8,8-dimethyl-2-(8-oxa-3-azabicyclo[3.2.1]oct-3-yl)-5-oxo-5,6,7,8-tetrahydro-9-oxa-1,3,6-triazabenzocyclohepten-4-yl]-2-fluorophenyl}-3-(1H-pyrrolo[2,3-b]pyridin-4-yl)urea], the “PI3Ka IC50” value at PI3Kα (p110α/p85α) is given as over 10000 nM. The values for the IC50 (in test [1]; in the test with U87MG tumour cells; with Akt-pS473 in U87MG cells) were 377 nM, 490 nM and 144 nM, respectively.

As for `CCN1CC(C)(C)Oc2nc(N3CC4CCC(C3)O4)nc(-c3ccc(NC(=O)Nc4ccccn4)cc3F)c2C1=O` [Example 84, 1-{4-[6-Ethyl-8,8-dimethyl-2-(8-oxa-3-azabicyclo[3.2.1]oct-3-yl)-5-oxo-5,6,7,8-tetrahydro-9-oxa-1,3,6-triazabenzocyclohepten-4-yl]-3-fluorophenyl}-3-pyridin-2-ylurea], the “PI3Ka IC50” value on PI3Kα (p110α/p85α) is over 10000 nM. Moreover, the IC50 in test [1] worked out at 23 nM; in the test on U87MG tumour cells, 760 nM; in the test with Akt-pS473 in U87MG cells it was 255 nM.

Consider `CCN1CC(C)(C)Oc2nc(N3CC4CCC(C3)O4)nc(-c3ccc(NC(=O)Nc4ccnc(C)c4)c(F)c3)c2C1=O` [Example 56, 1-{4-[6-Ethyl-8,8-dimethyl-2-(8-oxa-3-azabicyclo[3.2.1]oct-3-yl)-5-oxo-5,6,7,8-tetrahydro-9-oxa-1,3,6-triazabenzocyclohepten-4-yl]-2-fluorophenyl}-3-(2-methylpyridin-4-yl)urea], for which the “PI3Ka IC50” value on PI3Kα (p110α/p85α) is given as 3230 nM. Also, the IC50 in test [1] amounted to 41 nM; in the test on U87MG tumour cells, 57 nM; with Akt-pS473 in U87MG cells, 26 nM.

Take `CCN1CC(C)(C)Oc2nc(N3CC4CCC(C3)O4)nc(-c3ccc(NC(=O)Nc4cccc(OC(F)F)c4)cc3)c2C1=O` [Example 18, 1-(3-difluoromethoxyphenyl)-3-{4-[6-ethyl-8,8-dimethyl-2-(8-oxa-3-azabicyclo[3.2.1]oct-3-yl)-5-oxo-5,6,7,8-tetrahydro-9-oxa-1,3,6-triazabenzocyclohepten-4-yl]phenyl}urea]: at PI3Kα (p110α/p85α), the “PI3Ka IC50” value is on record as 7570 nM. The values for the IC50 (in test [1]; in the test on U87MG tumour cells; with Akt-pS473 in U87MG cells) were 25 nM, 63 nM and 29 nM, respectively.

Consider `Cc1ccc(NC(=O)Nc2ccc(-c3nc(N4C5CCC4COC5)nc4c3C(=O)N(C)CC(C)(C)O4)cc2F)cn1` [Example 67, 1-{2-Fluoro-4-[6,8,8-trimethyl-2-(3-oxa-8-azabicyclo[3.2.1]oct-8-yl)-5-oxo-5,6,7,8-tetrahydro-9-oxa-1,3,6-triazabenzocyclohepten-4-yl]phenyl}-3-(6-methylpyridin-3-yl)urea], for which, at PI3Kα (p110α/p85α), the “PI3Ka IC50” value is on record as over 10000 nM. In addition, the IC50 in test [1] was found to be 15 nM; in the test on U87MG tumour cells it was 69 nM; in the test with Akt-pS473 in U87MG cells it was 20 nM.

Turning to `CCN1CC(C)(C)Oc2nc(N3CC4CCC(C3)O4)nc(-c3ccc(Nc4nnc(C)[nH]4)c(F)c3)c2C1=O` [Example 152, 6-Ethyl-4-[3-fluoro-4-(5-methyl-4H-[1,2,4]triazol-3-ylamino)phenyl]-8,8-dimethyl-2-(8-oxa-3-azabicyclo[3.2.1]oct-3-yl)-7,8-dihydro-6H-9-oxa-1,3,6-triazabenzocyclohepten-5-one], on PI3Kα (p110α/p85α), the “PI3Ka IC50” value was over 10000 nM. For the same compound, the values for the IC50 (in test [1]; in the test with U87MG tumour cells; in the test with Akt-pS473 in U87MG cells) were 348 nM, 2680 nM and 257 nM, respectively.

`CCN1CC(C)(C)Oc2nc(N3CC4CCC(C3)O4)nc(-c3ccc(NC(=O)O[C@H](C)CO)c(F)c3)c2C1=O` [Example 62, {4-[6-Ethyl-8,8-dimethyl-2-(8-oxa-3-azabicyclo[3.2.1]oct-3-yl)-5-oxo-5,6,7,8-tetrahydro-9-oxa-1,3,6-triazabenzocyclohepten-4-yl]-2-fluorophenyl}carbamic acid (R)-2-hydroxy-1-methylethyl ester]: on PI3Kα (p110α/p85α), the “PI3Ka IC50” value is recorded as over 10000 nM. The IC50 in test [1] is 667 nM; in the test with U87MG tumour cells, over 10000 nM; in the test with Akt-pS473 in U87MG cells, over 1000 nM.

Regarding `CN1CC(C)(C)Oc2nc(N3CC4CCC(C3)O4)nc(-c3ccc(NC(=O)Nc4ccncc4F)cc3)c2C1=O` [Example 85, 1-(3-Fluoropyridin-4-yl)-3-{4-[6,8,8-trimethyl-2-(8-oxa-3-azabicyclo[3.2.1]oct-3-yl)-5-oxo-5,6,7,8-tetrahydro-9-oxa-1,3,6-triazabenzocyclohepten-4-yl]phenyl}urea], the “PI3Ka IC50” value at PI3Kα (p110α/p85α) is recorded as 1950 nM. Besides, the IC50 stood at 24 nM in test [1], 77 nM with U87MG tumour cells and 28 nM in the test on Akt-pS473 in U87MG cells.

Take `CCN1CC(C)(C)Oc2nc(N3CC4CCC(C3)O4)nc(-c3ccc(NC(=O)Nc4ccc(N5CCCCC5)nc4)c(F)c3)c2C1=O` [Example 31, 1-{4-[6-Ethyl-8,8-dimethyl-2-(8-oxa-3-azabicyclo[3.2.1]oct-3-yl)-5-oxo-5,6,7,8-tetrahydro-9-oxa-1,3,6-triazabenzocyclohepten-4-yl]-2-fluorophenyl}-3-(3,4,5,6-tetrahydro-2H-[1,2′]bipyridinyl-5′-yl)urea]: the “PI3Ka IC50” value on PI3Kα (p110α/p85α) is over 10000 nM. The IC50 in test [1] amounted to 65 nM; in the test with U87MG tumour cells, 35 nM; in the test on Akt-pS473 in U87MG cells, 17 nM.

On to `CC1(C)CN(C2CCOCC2)C(=O)c2c(nc(N3CC4CCC(C3)O4)nc2-c2ccc(NC(=O)Nc3ccon3)cc2)O1` [Example 157, 1-{4-[8,8-Dimethyl-2-(8-oxa-3-azabicyclo[3.2.1]oct-3-yl)-5-oxo-6-(tetrahydropyran-4-yl)-5,6,7,8-tetrahydro-9-oxa-1,3,6-triazabenzocyclohepten-4-yl]phenyl}-3-isoxazol-3-ylurea], for which the “PI3Ka IC50” value on PI3Kα (p110α/p85α) was over 10000 nM. In addition, the IC50 is 27 nM in test [1], 260 nM with U87MG tumour cells and 67 nM in the test with Akt-pS473 in U87MG cells.

Consider `CCN1CC(C)(C)Oc2nc(N3CC4CCC(C3)O4)nc(-c3ccc(NC(=O)OC[C@H](C)O)cc3)c2C1=O` [Example 88, {4-[6-Ethyl-8,8-dimethyl-2-(8-oxa-3-azabicyclo[3.2.1]oct-3-yl)-5-oxo-5,6,7,8-tetrahydro-9-oxa-1,3,6-triazabenzocyclohepten-4-yl]phenyl}carbamic acid (S)-2-hydroxypropyl ester], for which the “PI3Ka IC50” value on PI3Kα (p110α/p85α) is given as over 10000 nM. Further, the IC50 in test [1] turned out to be 198 nM; with U87MG tumour cells it was 1900 nM. Also, the inhibition at 1 µM with Akt-pS473 in U87MG cells (read-out: U87 Akt-pS473 % Inhibition) came out at 65%.
